Measurements published in patent US6458811B1, “Benzothiophenes formulations containing same and methods” (Eli Lilly and Company, priority 1996, dated 2002).
Structures can show the parent of a compound that is named as a salt.

How the values were obtained:
[1] = Particle size distribution by laser light diffraction (Horiba LA900); format: physicochemical; conditions: hydrochloride
Protocol: In preparing the particulate compound of the invention a compound of formula I, in its raw state, is first characterized for size using an instrument adapted to measure equivalent spherical volume diameter, that is to say a Horiba LA900 Laser Scattering Particle Size Distribution Analyzer or equivalent instrument.
Sample is added to the dispersant until an acceptable level of laser light obscuration achieved at which point the particle size distribution is measured. […] The dispersant solution was filtered through a 0.2 micron microporous membrane filter to provide the necessary particle-free suspending dispersant.
Within five minutes of the preparation of the dispersion, triplicate particle size measurements were performed. Triplicate measurements are effected as a minimum check a) to produce more reliable measurements and b) to check the equivalent sampling of the suspended material has been reproducible i.e., the suspension has not settled.
From this, the mean equivalent spherical volume diameter value was derived (50% undersize value) together with the standard deviation of the distribution calculated as above.

[2] = Dissolution of bulk lots handfilled into capsules, 0.1% aqueous polysorbate 80, USP Apparatus II; format: physicochemical; conditions: hydrochloride; for % Dissolved: 60.0 mg in capsule; for % Dissolved at 10 Minutes: Table 8, 10 minutes; for % Dissolved at 30 Minutes: Table 8, 30 minutes
Protocol: Data was collected at 10, 20, 30 and 45 minutes to produce a dissolution profile.

[3] = Surface area by nitrogen adsorption (BET); format: physicochemical; conditions: bulk lot
[4] = Plasma AUC of unconjugated raloxifene in rats dosed in diet; format: in vivo, Fischer 344 rats; conditions: 0.4% w/w in diet for seven days, hydrochloride
Protocol: In an attempt to evaluate these differences upon in vivo absorption, a study was conducted in Fischer 344 rats.

MCF-7 cells = MCF-7 cells in cell culture; cited from earlier work
[5] = system: uterotrophic response to estrogen; conditions: immature rats, versus tamoxifen; cited from earlier work
uterotrophic response = conditions: OVX rats; cited from earlier work

Compound	90% less than ([1]; bulk lots of Table 6) [μm]	mean particle size ([1]; bulk lots of Table 6) [μm]	% Dissolved ([2]; 10 min) [%]	% Dissolved ([2]; 20 min) [%]	% Dissolved ([2]; 30 min) [%]	% Dissolved ([2]; 45 min) [%]	% Dissolved at 10 Minutes [2] [%]	% Dissolved at 30 Minutes [2] [%]	Surface Area ([3]; hydrochloride) [m^2/gm]	AUC [4] [ng·h/mL]	mean particle size ([1]; as restated) [microns]	Surface Area ([3]; listed as #2, hydrochloride) [m^2/gm]	Surface Area ([3]; listed as lot #2, hydrochloride) [m^2/gm]	90% less than ([1]; bulk lots of Table 6, Ball Milled bulk lot) [μm]	90% less than ([1]; bulk lots of Table 6, Slurry Milled bulk lot) [μm]	inhibition of estrogen-dependent proliferation (MCF-7 cells)	antagonism of the uterotrophic response to estrogen [5]	uterotrophic response (uterotrophic response)
O=C(c1ccc(OCCN2CCCCC2)cc1)c1c(-c2ccc(O)cc2)sc2cc(O)ccc12 [Lot #1, raloxifene hydrochloride]	6.8	3.9	51	68	78	88	50	78	6.09	10056	–	–	–	–	–	–	–	–
O=C(c1ccc(OCCN2CCCCC2)cc1)c1c(-c2ccc(O)cc2)sc2cc(O)ccc12 [Lot #2, raloxifene hydrochloride]	13.9	8.4	41	60	68	74	41	68	–	8037	8.4	2.28	2.28	–	–	–	–	–
O=C(c1ccc(OCCN2CCCCC2)cc1)c1c(-c2ccc(O)cc2)sc2cc(O)ccc12 [Lot #3, raloxifene hydrochloride]	–	–	31	45	54	64	31	55	2.10	5743	23.3	–	–	55.3	89	–	–	–
O=C(c1ccc(OCCN2CCCCC2)cc1)c1c(-c2ccc(O)cc2)sc2cc(O)ccc12 [Lot #4, raloxifene hydrochloride]	–	–	15	27	35	49	15	35	–	3329	–	–	–	–	–	–	–	–
O=C(c1ccc(OCCN2CCCCC2)cc1)c1c(-c2ccc(O)cc2)sc2cc(O)ccc12 [Raloxifene, 6-hydroxy-2-(4-hydroxyphenyl)-3-[4-(2-piperidinoethoxy)benzoyl]benzo[b]-thiophene]	–	–	–	–	–	–	–	–	–	–	–	–	–	–	–	inhibits estrogen-dependent proliferation	more effective than tamoxifen	only minimal uterotrophic response that was not dose-dependent
